Test results from patent US7541188B2, “Skin substitutes and uses thereof” (Stratatech Corporation, priority 2001, dated 2009).
Read-outs that look alike come from different tables or passages of the source.

What was measured:
skin equivalents = conditions: irritant-treated skin equivalents; cited from earlier work
[1] = tested on: NIKS organotypic cultures; experiment: IL-1α secretion by NIKS organotypic cultures (Quantikine IL-1α ELISA of media); format: cell-based, human; conditions: 0.1% SDS applied topically, 24 hr, 37° C.
Description: Solutions of SDS (0.1%, 0.2%, and 0.5%) were topically applied to air-exposed NIKS organotypic cultures and incubated for 24 hr at 37° C. After 24 hr, the media underneath the cultures was assayed for IL-1α protein using a Quantikine IL-1α ELISA kit (R&D Systems, Minneapolis, Minn.) and cultures were incubated with MTS reagent (Promega Corp., Madison, Wis.) to determine cell viability. Media from untreated cultures contained 25 pg/ml IL-1α, whereas the concentration of IL-1α in cultures treated with 0.1%, 0.2% or 0.5% SDS was 290, 375 and 275 pg/ml respectively.

[2] = tested on: tracheobronchial epithelial cells; conditions: cited from earlier work
[3] = tested on: in vitro skin equivalent cultures; conditions: substance added to in vitro cultures; cited from earlier work
[4] = tested on: in vitro skin equivalent cultures; conditions: substance added to in vitro cultures, cited from earlier work

Molecule | expression and secretion of the pro-inflammatory cytokines IL-1α and IL-8 (skin equivalents) | Barrier Function [4] | further results
CCCCCCCCCCCCOS(=O)(=O)[O-].[Na+] [SDS] | induce expression and secretion |  | concentration of IL-1α in media [1]: 290 pg/mL
C=C1/C(=C\C=C2/CCC[C@]3(C)[C@@H]([C@H](C)/C=C/[C@@H](O)C4CC4)CC[C@@H]23)C[C@@H](O)C[C@@H]1O [calcipotriol] | induce expression and secretion |  | 
CC1=C(/C=C/C(C)=C/C=C/C(C)=C/C(=O)O)C(C)(C)CCC1 [trans-retinoic acid] | induce expression and secretion |  | induction of reporter gene containing IL-8 promoter sequences between −1472 and +19 [2]: induced
EGF: epidermal growth factor (NSDSECPLSHDGYCLHDGVCMYIEALDKYACNCVVGYIGERCQYRDLKWWELR; Epidermal growth factor; UniProt P01133 971-1023, looked up) |  |  | Lipid Composition [3]: High
Estrogen |  | Accelerates | 
Vitamin D |  | Improved/No | Barrier Function ([4]; listed as vitamin D): improvements in some studies
